Reference: patent US20250154288A1, “CYTOTOXICITY TARGETING CHIMERAS FOR C-C CHEMOKINE RECEPTOR 2-EXPRESSING CELLS” (GLAXOSMITHKLINE INTELLECTUAL PROPERTY DEVELOPMENT LIMITED, priority 2022, published 2025)
Where a name gives a salt, the structure may show the parent alone.

Experiments:
[1] = target: T1, CHOK1 cells engineered to overexpress human CCR2 (Homo sapiens, UniProt P41597); test: Antibody Dependent Cellular Cytotoxicity (ADCC) Reporter Assay; assay type: cell-based; settings: with anti-cotinine antibody (human IgG1 Fc, S239D/I332E); Jurkat FcγRIIIa NFAT-luciferase reporter cells; average if several runs; read-out: ADCC Reporter Assay pEC50 (converted)
T1 construct: expressed in transfected cells; host or cells: CHOK1
Method in brief: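 CHOK1-hCCR2 target cells co-incubated ~12-18 h with compound (1 pM–10 μM), anti-cotinine rabbit/human IgG1 S239D/I332E antibody (0.01–200 μg/mL) and Jurkat FcγRIIIa NFAT-luciferase reporter cells. Luminescence signal:background versus no-compound wells; EC50 from four-parameter fit, reported as pEC50, averaged over runs.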

[2] = target: human alpha1 nicotinic acetylcholine (nACh) receptor (Homo sapiens, UniProt P02708+Q07001); test: Nicotinic Acetylcholine Receptor Antagonism Assay (IONFlux automated patch clamp); assay type: cell-based; settings: for IC50: antagonism of nAChR stimulated with acetylcholine, average if several runs; for Emax at 100 µM: maximum percentage antagonism at Maximum Concentration of Compound Tested 100 μM, read-out: Maximum Response (%)
Protocol: Cells expressing human alpha1 nicotinic acetylcholine (nACh) receptor (nAChR) were washed and dissociated using Trypsin containing buffer. Cells were then washed and seeded at a density of 3-5 million cells/mL and allowed to grow for 3 days. Then, 60-80 μL of cells were added to plates and incubated with dose response of an ARM compound of Formula (I) with a top concentration of either 10 μM or 100 μM. The receptor was then stimulated via addition of acetylcholine (ACh) and activation of the receptor was monitored via the IONFlux automated patch clamp system. IonFlux Data Analyzer software was utilized to perform leak subtraction and measure (min) peak current amplitude.
Data processing: (1) Current values recorded for vehicle only applications in individual traps/patterns were subtracted from corresponding current amplitude values for control, test article and control+test article. (2) Control response was calculated as % of the average response of the 3rd out of total 3 ACh (10 mM) applications alone. In rare situations, if the 3rd ACh response was obscured due to technical artifacts, the 2nd and/or 1st ACh (10 mM) application was considered as control. The peak current amplitude generated in the presence of each test article concentration was then used to calculate the % inhibition as compared to control response (10 mM ACh alone). These estimates were further corrected for vehicle response and run down corrected by normalizing with time matched control responses (10 mM ACh alone). The corrected percentages were then fit with a non-linear function in GraphPad Prism 6 (or later versions) to determine the IC50.
Exclusion criteria: (i) any n's with poor recording quality, (ii) control current amplitude <500 pA or (iii) significant outliers, as determined by the Grubbs' test.
ARMs compounds of Formula (I) of the invention were tested for antagonism of the nAChR in the above assay in […] experimental runs and the results are shown in Table 6 below. Antagonistic activity of the compounds of Formula (I) of the invention is reported as an IC50 value (half maximal inhibitory concentration) and the maximum percentage antagonism observed at the highest concentration of compound of Formula (I) tested, as indicated in Table 6. For compounds tested in more than one experimental run, the IC50 value is reported as an average.

[3] = target: Anti-cotinine antibody (SEQ ID NO: 11 / SEQ ID NO: 12); test: Binding of Anti-Cotinine Antibody to ARM Compounds measured by Surface Plasmon Resonance (SPR); parameters: species or system rabbit variable region with human IgG1 Fc domain; settings: Biacore T200, 37° C., Kd = koff/kon, average if several runs
Protocol: Anti-cotinine antibodies having a heavy chain sequence of SEQ ID NO: 11 and a light chain sequence of SEQ ID NO: 12 (rabbit variable region with human IgG1 Fc domain containing a DE mutation (S239D/I332E)) were captured on one or more flow cells of a protein A sensor chip (Cytiva) using a Biacore T200 while reserving flow cell 1 as a reference. Following capture, a 3000 second wait step was included to reduce drift during compound analysis. ARM compounds of Formula (I) were then injected at 100 μL/min with 200 and 2000 second association and dissociation times. The entire experiment was run at 37° C. with running buffer containing 10 mM HEPES pH 7.4, 150 mM NaCl, 0.005% P20 and 1% DMSO. ARM compounds of Formula (I) were titrated with a top concentration of 200 nM using a 3-fold 5-point dilution series and a corresponding 5-injection buffer cycle was run for blank subtraction. Data were double referenced by subtracting the response of the reference flow cell from that of the antibody-containing flow cell and subsequently subtracting the referenced blank sensorgrams. Following compound analysis, the surface was regenerated using a 30 second injection of pH 1.5 glycine at a flow rate of 30 μL/min after which antibody was re-captured. The experiment was run using Biacore T200 control software and evaluated using Biacore T200 Evaluation software. Curves were fit with a 1:1 kinetic binding model to obtain kon(1/Ms), koff(1/s), Kd (M) determined as koff/kon, and residence time determined as 1/koff. (s).
Anti-cotinine antibody was tested for binding to ARMs compounds of Formula (I) of the invention in the above assay in or more experimental runs and the results are shown in Table 5 below. Affinity is reported as a pKd value. The pKd value is the negative log of the Kd value, wherein the Kd value is the dissociation constant measured in molar (M) as noted above. For compounds tested in more than one experimental run, the pKd value is reported as an average

human alpha1 nicotinic acetylcholine (nACh) receptor, sequence (P02708 21-457): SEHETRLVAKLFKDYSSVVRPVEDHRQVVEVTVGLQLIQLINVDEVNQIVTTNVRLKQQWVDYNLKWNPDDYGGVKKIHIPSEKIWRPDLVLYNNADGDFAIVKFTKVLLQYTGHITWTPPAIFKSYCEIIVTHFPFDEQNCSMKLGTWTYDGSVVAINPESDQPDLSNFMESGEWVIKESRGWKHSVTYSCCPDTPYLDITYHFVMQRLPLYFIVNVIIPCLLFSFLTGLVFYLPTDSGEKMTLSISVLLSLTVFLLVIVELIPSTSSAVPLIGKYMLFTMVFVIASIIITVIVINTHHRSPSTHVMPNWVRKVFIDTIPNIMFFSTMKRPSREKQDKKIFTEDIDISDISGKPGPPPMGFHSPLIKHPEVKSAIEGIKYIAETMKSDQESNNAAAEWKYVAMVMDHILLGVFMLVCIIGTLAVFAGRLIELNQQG
human alpha1 nicotinic acetylcholine (nACh) receptor, sequence (P11230 24-501 partner): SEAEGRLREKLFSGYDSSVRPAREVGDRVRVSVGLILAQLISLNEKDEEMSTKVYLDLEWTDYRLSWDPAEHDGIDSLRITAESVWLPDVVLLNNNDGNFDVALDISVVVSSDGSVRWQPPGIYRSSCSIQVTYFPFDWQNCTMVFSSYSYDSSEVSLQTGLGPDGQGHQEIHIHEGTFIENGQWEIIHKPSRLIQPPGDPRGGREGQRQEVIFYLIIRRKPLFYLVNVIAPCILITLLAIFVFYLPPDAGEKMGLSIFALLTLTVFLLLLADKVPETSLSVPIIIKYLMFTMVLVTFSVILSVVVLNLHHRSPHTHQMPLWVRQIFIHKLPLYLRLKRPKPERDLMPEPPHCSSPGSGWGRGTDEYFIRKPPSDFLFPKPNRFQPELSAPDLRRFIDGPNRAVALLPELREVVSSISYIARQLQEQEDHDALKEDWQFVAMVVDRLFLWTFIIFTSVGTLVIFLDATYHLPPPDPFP
human alpha1 nicotinic acetylcholine (nACh) receptor, sequence (Q07001 22-517): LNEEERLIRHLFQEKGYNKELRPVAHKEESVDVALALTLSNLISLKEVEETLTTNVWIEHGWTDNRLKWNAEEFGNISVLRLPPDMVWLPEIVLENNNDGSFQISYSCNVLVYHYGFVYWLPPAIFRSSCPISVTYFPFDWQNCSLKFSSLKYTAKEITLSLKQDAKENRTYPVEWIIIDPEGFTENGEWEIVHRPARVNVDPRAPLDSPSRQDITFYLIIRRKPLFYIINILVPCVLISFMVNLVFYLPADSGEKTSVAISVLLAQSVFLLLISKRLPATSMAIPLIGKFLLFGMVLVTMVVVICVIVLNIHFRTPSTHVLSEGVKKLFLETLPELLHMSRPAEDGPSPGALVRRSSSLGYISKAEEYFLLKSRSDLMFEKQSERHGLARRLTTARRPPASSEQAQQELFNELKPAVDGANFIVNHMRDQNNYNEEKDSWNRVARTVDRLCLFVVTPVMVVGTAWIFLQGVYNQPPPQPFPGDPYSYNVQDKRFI

Work on CO[C@@H]1COCC[C@@H]1N[C@@H]1CC[C@](CCCNC(=O)CCOCCOCCOCCOCCOCCOCCOCCOCCOCCOCCOCCOCCNC(=O)[C@H]2CC(=O)N(C)[C@@H]2c2cccnc2)(C(=O)N2CCc3ncc(C(F)(F)F)cc3C2)C1 [Example 1, (2S,3S)—N-(43-((1S,3R)-3-(((3S,4S)-3-methoxytetrahydro-2H-pyran-4-yl)amino)-1-(3-(trifluoromethyl)-5,6,7,8-tetrahydro-1,6-naphthyridine-6-carbonyl)cyclopentyl)-39-oxo-3,6,9,12,15,18,21,24,27,30,33,36-dodecaoxa-40-azatritetracontyl)-1-methyl-5-oxo-2-(pyridin-3-yl)pyrrolidine-3-carboxamide] yielded an EC50 [1] of 2.51 nM, an IC50 [2] greater than 100000 nM and an Emax at 100 µM [2] of 29%.
CO[C@@H]1COCC[C@@H]1N[C@@H]1CC[C@](CCCNC(=O)[C@H]2CC[C@@H](NC(=O)CCCO[C@H]3CC[C@@H](OCCNC(=O)[C@H]4CC(=O)N(C)[C@@H]4c4cccnc4)CC3)CC2)(C(=O)N2CCc3ncc(C(F)(F)F)cc3C2)C1 [Example 4, (2S,3S)-N-(2-(((1S,4R)-4-(4-(((1R,4S)-4-((3-((1S,3R)-3-(((3S,4S)-3-Methoxytetrahydro-2H-pyran-4-yl)amino)-1-(3-(trifluoromethyl)-5,6,7,8-tetrahydro-1,6-naphthyridine-6-carbonyl)cyclopentyl)propyl)carbamoyl)cyclohexyl)amino)-4-oxobutoxy)cyclohexyl)oxy)ethyl)-1-methyl-5-oxo-2-(pyridin-3-yl)pyrrolidine-3-carboxamide, Formic acid salt] showed an EC50 [1] of 0.794 nM and an Emax at 100 µM [2] of 48%.
With CO[C@@H]1COCC[C@@H]1N[C@@H]1CC[C@](CCCCCNC(=O)[C@H]2CC[C@H](NC(=O)CCCO[C@H]3CC[C@H](OCCNC(=O)[C@H]4CC(=O)N(C)[C@@H]4c4cccnc4)CC3)CC2)(C(=O)N2CCc3ncc(C(F)(F)F)cc3C2)C1 [Example 9, (2S,3S)-N-(2-(((1R,4S)-4-(4-(((1S,4R)-4-((5-((1S,3R)-3-(((3S,4S)-3-Methoxytetrahydro-2H-pyran-4-yl)amino)-1-(3-(trifluoromethyl)-5,6,7,8-tetrahydro-1,6-naphthyridine-6-carbonyl)cyclopentyl)pentyl)carbamoyl)cyclohexyl)amino)-4-oxobutoxy)cyclohexyl)oxy)ethyl)-1-methyl-5-oxo-2-(pyridin-3-yl)pyrrolidine-3-carboxamide] the “pKd of Antibody for ARM Compound of Formula (I)” value [3] was 9.2 and the EC50 [1] was 1.26 nM.
CO[C@@H]1COCC[C@@H]1N[C@@H]1CC[C@](COCCNC(=O)[C@H]2CC[C@H](NC(=O)CCCO[C@H]3CC[C@H](OCCNC(=O)[C@H]4CC(=O)N(C)[C@@H]4c4cccnc4)CC3)CC2)(C(=O)N2CCc3ncc(C(F)(F)F)cc3C2)C1 [Example 11, (2S,3S)-N-(2-(((1R,4S)-4-(4-(((1S,4R)-4-((2-(((1S,3R)-3-(((3S,4S)-3-Methoxytetrahydro-2H-pyran-4-yl)amino)-1-(3-(trifluoromethyl)-5,6,7,8-tetrahydro-1,6-naphthyridine-6-carbonyl)cyclopentyl)methoxy)ethyl)carbamoyl)cyclohexyl)amino)-4-oxobutoxy)cyclohexyl)oxy)ethyl)-1-methyl-5-oxo-2-(pyridin-3-yl)pyrrolidine-3-carboxamide] gave an EC50 [1] of 2.51 nM, an IC50 [2] greater than 100000 nM and an Emax at 100 µM [2] of 39%.
With CO[C@@H]1COCC[C@@H]1N[C@@H]1CC[C@@](C(=O)N2Cc3cc(C(F)(F)F)cnc3[C@@H](NC(=O)[C@H]3CC[C@H](NC(=O)CCCO[C@H]4CC[C@H](OCCNC(=O)[C@H]5CC(=O)N(C)[C@@H]5c5cccnc5)CC4)CC3)C2)(C(C)C)C1 [Example 15, (2S,3S)-N-(2-(((1R,4S)-4-(4-(((1S,4R)-4-(((S)-6-((1S,3R)-1-isopropyl-3-(((3S,4S)-3-methoxytetrahydro-2H-pyran-4-yl)amino)cyclopentane-1-carbonyl)-3-(trifluoromethyl)-5,6,7,8-tetrahydro-1,6-naphthyridin-8-yl)carbamoyl)cyclohexyl)amino)-4-oxobutoxy)cyclohexyl)oxy)ethyl)-1-methyl-5-oxo-2-(pyridin-3-yl)pyrrolidine-3-carboxamide] the “pKd of Antibody for ARM Compound of Formula (I)” value [3] was 9.0 and the EC50 [1] was 0.2 nM.
Work on CO[C@@H]1COCC[C@@H]1N[C@@H]1CC[C@](CCCNC(=O)[C@H]2CC[C@@H](NC(=O)CCOCCOCCOCCNC(=O)[C@H]3CC(=O)N(C)[C@@H]3c3cccnc3)CC2)(C(=O)N2CCc3ncc(C(F)(F)F)cc3C2)C1 [Example 17, (2S,3S)—N-(2-(2-(2-(3-(((1R,4s)-4-((3-((1S,3R)-3-(((3S,4S)-3-Methoxytetrahydro-2H-pyran-4-yl)amino)-1-(3-(trifluoromethyl)-5,6,7,8-tetrahydro-1,6-naphthyridine-6-carbonyl)cyclopentyl)propyl)carbamoyl)cyclohexyl)amino)-3-oxopropoxy)ethoxy)ethoxy)ethyl)-1-methyl-5-oxo-2-(pyridin-3-yl)pyrrolidine-3-carboxamide, Formic acid salt] yielded an EC50 [1] of 6.31 nM, an IC50 [2] of no less than 100000 nM and an Emax at 100 µM [2] of 21%.
CO[C@H]1COCC[C@H]1N[C@H]1CC[C@@](CCCNC(=O)[C@H]2CC[C@@H](NC(=O)CCOCCOCCNC(=O)CCNC(=O)[C@H]3CC(=O)N(C)[C@@H]3c3cccnc3)CC2)(C(=O)N2CCc3ncc(C(F)(F)F)cc3C2)C1 [Example 19, (2S,3S)—N-(3-((2-(2-(3-(((1s,4s)-4-((3-((1R,3S)-3-(((3R,4R)-3-Methoxytetrahydro-2H-pyran-4-yl)amino)-1-(3-(trifluoromethyl)-5,6,7,8-tetrahydro-1,6-naphthyridine-6-carbonyl)cyclopentyl)propyl)carbamoyl)cyclohexyl)amino)-3-oxopropoxy)ethoxy)ethyl)amino)-3-oxopropyl)-1-methyl-5-oxo-2-(pyridin-3-yl)pyrrolidine-3-carboxamide] gave an EC50 [1] of 3.16 nM, an IC50 [2] greater than 100000 nM and an Emax at 100 µM [2] of 8%.
CO[C@@H]1COCC[C@@H]1N[C@@H]1CC[C@](CCCNC(=O)CCOCCOCCO[C@H]2CC[C@H](OCCNC(=O)[C@H]3CC(=O)N(C)[C@@H]3c3cccnc3)CC2)(C(=O)N2CCc3ncc(C(F)(F)F)cc3C2)C1 [Example 20, ((2S,3S)—N-(2-(((1r,4S)-4-(2-(2-(3-((3-((1S,3R)-3-(((3S,4S)-3-Methoxytetrahydro-2H-pyran-4-yl)amino)-1-(3-(trifluoromethyl)-5,6,7,8-tetrahydro-1,6-naphthyridine-6-carbonyl)cyclopentyl)propyl)amino)-3-oxopropoxy)ethoxy)ethoxy)cyclohexyl)oxy)ethyl)-1-methyl-5-oxo-2-(pyridin-3-yl)pyrrolidine-3-carboxamide, Formic acid salt] showed an EC50 [1] of 3.98 nM and an Emax at 100 µM [2] of 74%.
